Reference: patent US20230219904A1 (SYNGENTA CROP PROTECTION AG, priority 2020, published 2023)

Key:
Format in all cases: in vivo
Conditions in all cases: evaluated after 13 days
[1] = system: Abutilon theophrasti (ABUTH); assay: Pre-emergence herbicidal glasshouse test (Table B1)
Outline: (§1)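 Application rate was 500 g/h unless otherwise indicated, as a spray prepared from acetone/water (50:50) containing 0.5% Tween 20. Treatment followed one day (pre-emergence) or 8 days (post-emergence) of glasshouse growth, and percentage plant damage was assessed 13 days later on a 1–5 scale.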

[2] = system: Amaranthus retoflexus (AMARE); assay: as above
Outline: as §1

[3] = system: Ipomoea hederacea (IPOHE); assay: as above
Outline: as §1

Setaria faberi (SETFA) [4] = assay: as above
Outline: as §1

[5] = system: Echinochloa crus-galh (ECHCG); assay: as above
Outline: as §1

[6] = system: Abutilon theophrasti (ABUTH); assay: Post-emergence herbicidal glasshouse test (Table B1)
Outline: as §1

[7] = system: Amaranthus retoflexus (AMARE); assay: as above
Outline: as §1

[8] = system: Ipomoea hederacea (IPOHE); assay: as above
Outline: as §1

Setaria faberi (SETFA) [9] = assay: as above
Outline: as §1

[10] = system: Echinochloa crus-galh (ECHCG); assay: as above
Outline: as §1

Compound | PRE Application ABUTH, percentage damage on five-point scale ([1]; applied at 125 g/ha) | PRE Application AMARE, percentage damage on five-point scale ([2]; applied at 125 g/ha) | PRE Application IPOHE, percentage damage on five-point scale ([3]; applied at 125 g/ha) | PRE Application SETFA, percentage damage on five-point scale (Setaria faberi (SETFA) [4]; applied at 125 g/ha) | PRE Application ECHCG, percentage damage on five-point scale ([5]; applied at 125 g/ha) | POST Application ABUTH, percentage damage on five-point scale ([6]; applied at 125 g/ha) | POST Application AMARE, percentage damage on five-point scale ([7]; applied at 125 g/ha) | POST Application IPOHE, percentage damage on five-point scale ([8]; applied at 125 g/ha) | POST Application SETFA, percentage damage on five-point scale (Setaria faberi (SETFA) [9]; applied at 125 g/ha) | POST Application ECHCG, percentage damage on five-point scale ([10]; applied at 125 g/ha) | PRE Application ABUTH, percentage damage on five-point scale ([1]; applied at 500 g/h) | PRE Application AMARE, percentage damage on five-point scale ([2]; applied at 500 g/h) | PRE Application IPOHE, percentage damage on five-point scale ([3]; applied) | PRE Application SETFA, percentage damage on five-point scale (Setaria faberi (SETFA) [4]; applied at 500 g/h) | PRE Application ECHCG, percentage damage on five-point scale ([5]; applied at 500 g/h) | POST Application ABUTH, percentage damage on five-point scale ([6]; applied at 500 g/h) | POST Application AMARE, percentage damage on five-point scale ([7]; applied at 500 g/h) | POST Application IPOHE, percentage damage on five-point scale ([8]; applied at 500 g/h) | POST Application SETFA, percentage damage on five-point scale (Setaria faberi (SETFA) [9]; applied at 500 g/h) | POST Application ECHCG, percentage damage on five-point scale ([10]; applied at 500 g/h)
Cc1c(C(=O)Nc2c(OC(F)F)ccc(C(=O)Nc3nnnn3C)c2Cl)nn(C)c1C [Compound 1.098] | 4 (4=60-79%) | 3 (3=40-59%) | 4 (4=60-79%) | 4 (4=60-79%) | 1 (1=0-19%) | 4 (4=60-79%) | 4 (4=60-79%) | 4 (4=60-79%) | 4 (4=60-79%) | 4 (4=60-79%) |  |  |  |  |  |  |  |  |  | 
CCn1nnnc1NC(=O)c1ccc(OC(F)(F)F)c(NC(=O)COC)c1Cl [Compound 1.116] |  |  |  |  |  |  |  |  |  |  | 5 (5=80-100%) | 5 (5=80-100%) | 1 (1=0-19%) | 1 (1=0-19%) | 3 (3=40-59%) | 5 (5=80-100%) | 5 (5=80-100%) | 5 (5=80-100%) | 5 (5=80-100%) | 5 (5=80-100%)
CC(F)C(=O)Nc1c(OCC(F)(F)F)ccc(C(=O)Nc2nnnn2C)c1Cl (centres unmarked) [Compound 1.016, 2-chloro-3-(2-fluoropropanoylamino)-N-(1-methyltetrazol-5-yl)-4-(2,2,2-trifluoroethoxy)benzamide] |  |  |  |  |  |  |  |  |  |  | 5 (5=80-100%) | 5 (5=80-100%) | 5 (5=80-100%) | 5 (5=80-100%) | 5 (5=80-100%) | 5 (5=80-100%) | 5 (5=80-100%) | 5 (5=80-100%) | 5 (5=80-100%) | 5 (5=80-100%)
CCn1nnnc1NC(=O)c1ccc(OC(F)(F)F)c(NC(=O)c2ccccc2OC)c1Cl [Compound 1.123] | 3 (3=40-59%) | 3 (3=40-59%) | 2 (2=20-39%) | 4 (4=60-79%) | 3 (3=40-59%) | 4 (4=60-79%) | 4 (4=60-79%) | 5 (5=80-100%) | 4 (4=60-79%) | 4 (4=60-79%) |  |  |  |  |  |  |  |  |  | 
COc1ccc(C(=O)Nc2c(OC(F)F)ccc(C(=O)Nc3nnnn3C)c2Cl)cc1 [Compound 1.101] | 4 (4=60-79%) | 4 (4=60-79%) | 2 (2=20-39%) | 4 (4=60-79%) | 1 (1=0-19%) | 4 (4=60-79%) | 4 (4=60-79%) | 4 (4=60-79%) | 4 (4=60-79%) | 5 (5=80-100%) |  |  |  |  |  |  |  |  |  | 
